Experimental data: ChEMBL document CHEMBL1201862, “PubChem BioAssay data set” (2004)
The source made the active and inactive calls.

Tests used:
[1] = molecular target: T1, Ubiquitin-conjugating enzyme E2 N (Homo sapiens, UniProt P61088); type: functional;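 also: Dose-response confirmation in a TR-FRET assay detecting UBC13-driven polyubiquitin chain formation, inhibition measured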
T1 sequence (P61088 whole entry): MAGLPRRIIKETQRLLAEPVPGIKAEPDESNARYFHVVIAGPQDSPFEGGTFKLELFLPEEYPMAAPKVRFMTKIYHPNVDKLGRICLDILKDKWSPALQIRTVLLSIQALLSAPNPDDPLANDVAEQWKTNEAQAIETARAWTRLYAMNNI

[2] = system: Vero; experiment: cells; type: functional; details: Chlorocebus sabaeus
[3] = Luminescence Cell-Based Dose Confirmation HTS to Identify Inhibitors of Platelet Dense Granule Release. [Related pubchem assays: 1663 (Primary HTS), 1678 (Summary of Project)]; type: functional
[4] = molecular target: Luciferin 4-monooxygenase (Photinus pyralis, UniProt P08659); experiment: inhibition of purified Photinus pyralis luciferase – biochemical, luminescence, dose response (AID 1891)
[5] = P. falciparum Dd2 growth inhibitors, dose response, SYBR Green, cherry-picked samples (AID 1159567); type: functional, cell-based
[6] = molecular target: T2, Rac GTPase-activating protein 1 (Homo sapiens, UniProt Q9H0H5); experiment: blockers of MgcRacGAP-driven Rac1 GTP hydrolysis – biochemical, ADP Hunter fluorescence, primary and confirmatory, confirmation (AID 624330); type: functional
T2 sequence (Q9H0H5 whole entry): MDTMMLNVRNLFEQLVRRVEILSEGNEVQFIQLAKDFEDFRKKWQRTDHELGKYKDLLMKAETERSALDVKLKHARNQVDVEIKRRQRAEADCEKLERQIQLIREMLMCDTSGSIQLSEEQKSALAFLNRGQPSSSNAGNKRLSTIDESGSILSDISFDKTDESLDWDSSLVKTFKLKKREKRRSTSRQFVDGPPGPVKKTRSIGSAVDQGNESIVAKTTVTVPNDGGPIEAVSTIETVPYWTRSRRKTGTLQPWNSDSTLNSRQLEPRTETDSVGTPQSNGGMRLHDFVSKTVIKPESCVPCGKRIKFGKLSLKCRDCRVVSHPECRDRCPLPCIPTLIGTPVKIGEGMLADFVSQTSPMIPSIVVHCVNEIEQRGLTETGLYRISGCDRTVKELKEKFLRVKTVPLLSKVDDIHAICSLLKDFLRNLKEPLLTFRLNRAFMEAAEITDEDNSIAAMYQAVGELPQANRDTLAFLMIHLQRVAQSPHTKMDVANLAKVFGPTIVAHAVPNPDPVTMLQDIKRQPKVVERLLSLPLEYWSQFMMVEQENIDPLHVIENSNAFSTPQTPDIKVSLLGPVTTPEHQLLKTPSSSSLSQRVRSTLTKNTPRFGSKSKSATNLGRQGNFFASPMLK

[7] = molecular target: Nonstructural protein 1 (Influenza A virus, UniProt Q194T2); type: functional, Influenza A virus (A/California/07/2009(H1N1))
[8] = molecular target: Large T antigen (Simian virus 40, UniProt P03070); type: functional, Betapolyomavirus macacae;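 also: Confirmatory-stage PubChem screen for compounds that inhibit SV40 T antigen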
[9] = molecular target: T3, Protein skinhead-1 (Caenorhabditis elegans, UniProt P34707); type: functional
T3 sequence (P34707 whole entry): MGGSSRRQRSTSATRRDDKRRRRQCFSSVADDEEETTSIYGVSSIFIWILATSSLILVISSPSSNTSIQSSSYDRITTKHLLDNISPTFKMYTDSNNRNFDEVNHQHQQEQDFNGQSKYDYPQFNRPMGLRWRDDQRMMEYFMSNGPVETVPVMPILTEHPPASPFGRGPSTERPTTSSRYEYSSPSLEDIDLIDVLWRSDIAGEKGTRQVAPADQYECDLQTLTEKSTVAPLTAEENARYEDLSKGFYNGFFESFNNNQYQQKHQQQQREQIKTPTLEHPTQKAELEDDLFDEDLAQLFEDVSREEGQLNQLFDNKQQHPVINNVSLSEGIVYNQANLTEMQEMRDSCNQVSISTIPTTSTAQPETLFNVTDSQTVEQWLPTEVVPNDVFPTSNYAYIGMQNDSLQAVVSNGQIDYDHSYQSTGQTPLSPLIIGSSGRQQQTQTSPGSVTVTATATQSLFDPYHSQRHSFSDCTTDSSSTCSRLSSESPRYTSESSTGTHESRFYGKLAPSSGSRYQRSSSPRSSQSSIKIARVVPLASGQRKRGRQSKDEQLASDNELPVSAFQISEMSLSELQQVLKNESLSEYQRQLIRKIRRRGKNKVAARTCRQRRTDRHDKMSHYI

[10] = microbe, parasite or virus in culture; type: functional; details: Mycobacterium tuberculosis
[11] = system: H9c2; experiment: cells; type: functional, cell-based; details: Rattus norvegicus, H9c2, Myocardium;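 also: confirmatory concentration-response retest of ultra-high-throughput screening hits for modulation of myocardial damage; cell death induced by hydrogen peroxide oxidative stress; compound pretreatment for 60 min then peroxide exposure for 2 h; potency is for protecting the cells against peroxide damage rather than for killing them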
[12] = molecular target: T4, Zinc finger protein mex-5 (Caenorhabditis elegans, UniProt Q9XUB2); experiment: potency of MEX-5 RNA-binding blockers – biochemical, C. elegans, fluorescence polarization, dose response (AID 1960)
T4 sequence (Q9XUB2 whole entry): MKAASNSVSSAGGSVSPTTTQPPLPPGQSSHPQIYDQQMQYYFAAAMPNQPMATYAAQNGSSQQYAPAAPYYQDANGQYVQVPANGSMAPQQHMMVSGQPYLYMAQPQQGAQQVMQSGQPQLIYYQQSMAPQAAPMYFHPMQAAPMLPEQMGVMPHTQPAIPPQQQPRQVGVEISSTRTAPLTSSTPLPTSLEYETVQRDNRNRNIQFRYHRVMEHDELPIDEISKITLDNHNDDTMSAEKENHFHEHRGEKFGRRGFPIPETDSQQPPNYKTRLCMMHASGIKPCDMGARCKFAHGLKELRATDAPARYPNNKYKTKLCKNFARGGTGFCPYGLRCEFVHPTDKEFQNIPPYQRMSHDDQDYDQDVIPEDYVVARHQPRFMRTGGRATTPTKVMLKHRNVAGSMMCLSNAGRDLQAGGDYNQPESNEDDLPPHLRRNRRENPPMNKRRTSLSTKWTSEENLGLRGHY

[13] = molecular target: T5, RNA-binding protein pos-1 (Caenorhabditis elegans, UniProt G5EF15); experiment: disruptors of C. elegans POS-1 RNA interaction – biochemical, fluorescence polarization, dose response (AID 1964);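 also: purified POS-1 fused to maltose binding protein made in E. coli; potency of compounds blocking POS-1 binding to fluorescent RNA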
T5 sequence (G5EF15 whole entry): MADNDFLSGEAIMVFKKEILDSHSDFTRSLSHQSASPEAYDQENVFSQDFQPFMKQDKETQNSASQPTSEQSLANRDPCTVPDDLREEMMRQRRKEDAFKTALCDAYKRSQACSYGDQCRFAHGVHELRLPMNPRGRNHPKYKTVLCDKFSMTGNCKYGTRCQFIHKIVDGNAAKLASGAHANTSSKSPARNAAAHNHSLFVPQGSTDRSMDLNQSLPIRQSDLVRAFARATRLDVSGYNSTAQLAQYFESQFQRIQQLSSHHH

[14] = viability of PTEN-deleted HCT116 cells – cell-based, HCT116 PTEN knockout, dose response (AID 1047); type: functional;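 also: HCT116 colon tumor cells with PTEN knocked out; cells exposed to compound for 60 hours before readout; potency for loss of cell viability measured by luminescence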
[15] = viability of HCT116 lacking mutant beta-catenin – cell-based, human colon tumor, dose response (AID 1045); type: functional;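 also: HCT116 colon tumor cells with beta catenin knocked out; cells exposed to compound for 60 hours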
[16] = system: Streptococcus sp. 'group A'; experiment: Streptococcus pyogenes SK(-)GAS viability under kanamycin – luminescence, BacTiterGlo, confirmation, counter-screen for streptokinase expression inhibitor project, dose response (AID 1900); type: functional, organism-based
[17] = molecular target: T6, Streptokinase A (Streptococcus pyogenes serotype M1, UniProt P10520); experiment: viability-normalized secreted streptokinase activity reduction – plasminogen activation absorbance, OD405, dose response (AID 1914); type: functional, Streptococcus pyogenes M1 GAS;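 also: secreted streptokinase activity via plasminogen activation per viability signal from cell pellet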
T6 sequence (P10520 whole entry): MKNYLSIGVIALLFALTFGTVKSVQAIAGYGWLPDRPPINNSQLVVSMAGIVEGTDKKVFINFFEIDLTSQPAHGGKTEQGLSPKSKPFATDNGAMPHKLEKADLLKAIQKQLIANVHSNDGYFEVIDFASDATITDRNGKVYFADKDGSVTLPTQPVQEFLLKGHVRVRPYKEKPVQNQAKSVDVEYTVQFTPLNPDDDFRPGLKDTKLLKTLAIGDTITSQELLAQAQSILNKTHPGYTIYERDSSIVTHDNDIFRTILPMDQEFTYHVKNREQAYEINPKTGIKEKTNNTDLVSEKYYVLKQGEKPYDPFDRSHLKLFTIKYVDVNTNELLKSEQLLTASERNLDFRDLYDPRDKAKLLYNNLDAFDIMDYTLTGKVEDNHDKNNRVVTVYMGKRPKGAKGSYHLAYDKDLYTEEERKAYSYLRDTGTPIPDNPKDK

[18] = system: Streptococcus; experiment: GAS UMAA2166 growth inhibition – luminescence, BacTiterGlo, counter-screen for streptokinase expression inhibitor project, dose response (AID 1915); type: functional, organism-based;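 also: potency for reduction of bacterial viability or growth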

Luciferin 4-monooxygenase, sequence (P08659 whole entry): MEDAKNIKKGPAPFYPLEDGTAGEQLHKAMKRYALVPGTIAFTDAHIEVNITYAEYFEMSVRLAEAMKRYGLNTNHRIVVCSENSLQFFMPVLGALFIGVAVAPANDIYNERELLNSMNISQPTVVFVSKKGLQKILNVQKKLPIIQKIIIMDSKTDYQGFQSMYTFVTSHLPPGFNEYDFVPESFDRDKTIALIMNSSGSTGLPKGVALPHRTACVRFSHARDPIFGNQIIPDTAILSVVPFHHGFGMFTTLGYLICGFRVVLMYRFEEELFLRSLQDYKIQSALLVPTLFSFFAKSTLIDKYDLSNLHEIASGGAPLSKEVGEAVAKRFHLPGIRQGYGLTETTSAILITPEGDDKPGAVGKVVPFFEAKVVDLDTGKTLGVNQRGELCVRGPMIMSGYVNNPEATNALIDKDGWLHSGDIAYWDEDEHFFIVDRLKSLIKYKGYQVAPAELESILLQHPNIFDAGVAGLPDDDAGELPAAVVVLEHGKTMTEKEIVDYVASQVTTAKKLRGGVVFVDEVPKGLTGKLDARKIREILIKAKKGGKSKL
Nonstructural protein 1, sequence (Q194T2 whole entry): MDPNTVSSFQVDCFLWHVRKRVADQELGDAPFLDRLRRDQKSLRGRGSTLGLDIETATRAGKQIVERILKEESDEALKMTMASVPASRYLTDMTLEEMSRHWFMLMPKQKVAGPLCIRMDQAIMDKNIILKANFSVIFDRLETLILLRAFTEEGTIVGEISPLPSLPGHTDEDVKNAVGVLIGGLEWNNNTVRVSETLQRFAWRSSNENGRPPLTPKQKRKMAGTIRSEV
Large T antigen, sequence (P03070 whole entry): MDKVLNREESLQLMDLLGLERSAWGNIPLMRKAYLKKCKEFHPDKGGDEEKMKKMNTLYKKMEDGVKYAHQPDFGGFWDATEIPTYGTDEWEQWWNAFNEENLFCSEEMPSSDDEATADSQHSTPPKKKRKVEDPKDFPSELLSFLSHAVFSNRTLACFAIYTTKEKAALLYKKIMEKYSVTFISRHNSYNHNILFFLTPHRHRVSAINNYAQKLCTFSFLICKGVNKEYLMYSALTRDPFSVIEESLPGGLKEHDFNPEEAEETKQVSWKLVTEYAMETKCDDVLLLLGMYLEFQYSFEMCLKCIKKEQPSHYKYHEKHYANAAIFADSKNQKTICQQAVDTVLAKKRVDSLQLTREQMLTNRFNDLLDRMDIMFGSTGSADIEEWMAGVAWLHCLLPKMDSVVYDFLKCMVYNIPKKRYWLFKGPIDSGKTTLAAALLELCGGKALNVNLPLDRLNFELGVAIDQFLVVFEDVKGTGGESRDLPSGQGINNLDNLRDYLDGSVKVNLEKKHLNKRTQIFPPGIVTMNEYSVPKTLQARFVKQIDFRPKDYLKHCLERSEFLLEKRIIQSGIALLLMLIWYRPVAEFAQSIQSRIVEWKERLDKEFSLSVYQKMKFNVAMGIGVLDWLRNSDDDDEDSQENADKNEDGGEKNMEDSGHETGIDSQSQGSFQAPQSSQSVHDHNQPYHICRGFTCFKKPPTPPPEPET

For `O=C(CCC(=O)N1CCOc2ccc(Cl)cc21)NCCCN1CCC(Cc2ccccc2)CC1`, the IC50 [1] was > 20 µM (inactive) and the CC50 [2] was 18.9 µM (active).
For `CSc1ccc(/C=N/NC(=O)c2cccc(O)c2)cc1`, the EC50 [3] was 6.7 µM (active) and the EC50 [4] was 0.619 µM (active).
With `COc1ccc2c3c(n(C)c2c1)[C@H](CO)N(Cc1ccncc1)CC31CCN(C(=O)Cc2ccncc2)CC1` the AC50 [5] was 7.67 µM (active).
With `Oc1ccc(/C=N/NC(=S)NCCN2CCOCC2)c(O)c1` the IC50 [6] was 20.6 µM (active), the IC50 [7] was 6.59 µM (active) and the IC50 [8] was 7.26 µM (active).
With `COc1ccc(CN2C[C@H](C)[C@@H](OC)CN(C)C(=O)c3cc(NC(=O)c4nc5ccccc5s4)ccc3OC[C@@H]2C)cc1` the AC50 [5] was 4.9 µM (active).
With `COc1cccc(NC(=O)C2CCCN(c3ncnc4c3nc3n4CCCCC3)C2)c1` (configuration not stated) the IC50 [9] was > 100 µM (inactive).
In the case of `Cc1ccc(NC(=O)C(=O)c2ccc(C)cc2)cc1`, the IC50 [9] is reported as 98.5 µM (inactive).
For `Oc1ccc2ccccc2c1N=Nc1ccccc1F`, the IC50 [7] was 20.4 µM (active).
For `CCOC(=O)c1ccc(/N=C2\C(=S)N(c3ccc(C(=O)OCC)cc3)C(=N)N2/N=C/c2ccccc2)cc1`, the CC50 [10] was > 40 µM (active).
For `COc1cc(OC)c(NC(=O)c2cc(S(=O)(=O)N3CCOCC3)cn2C)cc1Cl`, the EC50 [3] was > 112 µM (not active) and the EC50 [4] was > 112 µM (not active).
For `CCN(CC)CCC(c1ccc(N(C)C)cc1)c1c(OC)cc(OC)c2c(-c3ccccc3)cc(=O)oc12` (configuration not stated), the IC50 [1] was > 20 µM (inactive) and the IC50 [7] was 13.6 µM (active).
With `Cc1cc(-n2c(C)cc(C(=O)COc3ccc4ccc(=O)oc4c3)c2C)no1` the IC50 [11] was 24.7 µM (active) and the CC50 [10] was > 40 µM (active).
In the case of `CC1C/C(=N/Nc2ccc([N+](=O)[O-])cc2[N+](=O)[O-])CC(C)(C)C1` (configuration not stated), the IC50 [7] is reported as 46 µM (active).
In the case of `CC1(C)CC(=O)C2=C(C1)OC(/N=C/N1CCOCC1)=C(C#N)C2c1ccccc1` (configuration not stated), the EC50 [12] is reported as > 300 µM (not active) and the EC50 [13] is reported as > 300 µM (not active).
With `CCOc1ccc(N2CC(C(=O)NCCc3ccc(OC)c(OC)c3)CC2=O)cc1` (configuration not stated) the EC50 [3] was 36.1 µM (active) and the EC50 [4] was > 112 µM (not active).
For `O=C1CSC(N/N=C/c2cccs2)=N1`, the EC50 [12] was > 300 µM (not active) and the EC50 [13] was > 300 µM (not active).
With `N#CC1=C(N)OC2=C(C(=O)CCC2)C1c1cc2c(cc1Cl)OCO2` (configuration not stated) the EC50 [12] was > 300 µM (not active) and the EC50 [13] was > 300 µM (not active).
In the case of `O=[N+]([O-])c1cc(-c2ccc(/C=N/n3cnnc3)o2)ccc1Cl`, the EC50 [12] is reported as 32.5 µM (active) and the EC50 [13] is reported as 30.1 µM (active).
For `CCCn1c(O)c(C#N)c(C)c(CN2CCCCC2)c1=O`, the EC50 [12] was > 300 µM (not active) and the EC50 [13] was > 300 µM (inconclusive).
With `Cn1ncc(Cl)c1C(=O)N/N=C/c1cccc(OC2CSC2)c1` the EC50 [12] was > 300 µM (not active) and the EC50 [13] was > 300 µM (not active).
For `COC(=O)c1ccc(CN2CC(=O)N3[C@H](CO)[C@@H](c4ccc(-c5ccccc5F)cc4)[C@H]3C2)cc1`, the AC50 [5] was 30 µM (active).
In the case of `Cc1ccn2c(-c3csc(NCc4ccccc4)n3)c(C)nc2c1`, the CC50 [10] is reported as > 40 µM (active).
With `COc1ccc(C(=O)C(CCC(CNC(C)(C)C)C(=O)c2ccc(OC)cc2)CNC(C)(C)C)cc1` (configuration not stated) the EC50 [14] was 3.04 µM (active), the EC50 [3] was 4.24 µM (active) and the EC50 [15] was 2.48 µM (active). For the same compound, the EC50 [4] was > 112 µM (not active).
With `COC(=O)c1cccc(NC(=O)Nc2ccc(Cl)cc2Cl)c1` the EC50 [3] was > 112 µM (not active) and the EC50 [4] was > 112 µM (not active).
With `N#Cc1cncc(C#Cc2ccccc2)c1` the IC50 [9] was 16.9 µM (active).
For `Cc1[nH]c2ccccc2c1C(c1ccccn1)c1c(C)[nH]c2ccccc12`, the EC50 [16] was 5.36 µM (active), the EC50 [17] was > 150 µM (not active) and the EC50 [18] was 12.1 µM (active). For the same compound, the IC50 [7] was > 100 µM (active).
With `Cc1cc2ccccc2n1CCNC(=O)C1CCCC1` the IC50 [9] was > 100 µM (inactive).
With `COCOCCn1cc(CN2CCS(=O)(=O)N(Cc3ccc(-c4cccc(N(C)C)c4)cc3)C(C(C)C)C2=O)nn1` (configuration not stated) the IC50 [9] was > 100 µM (inactive).
With `Cc1ccc(NS(=O)(=O)c2cccc(C(=O)N3CCCCCC3)c2)cc1` the EC50 [3] was > 112 µM (not active) and the EC50 [4] was > 112 µM (not active).
In the case of `Brc1cccc(-c2nc(-c3ccncc3)no2)c1`, the IC50 [9] is reported as 16.6 µM (active).
In the case of `COc1ccc(CNc2ccc(-c3ccc(OC)cc3)nn2)cc1`, the EC50 [3] is reported as > 112 µM (not active) and the EC50 [4] is reported as > 112 µM (not active).
With `CC(=O)Nc1cccc(N2C(=O)CC(Cc3ccccc3)C2=O)c1` (configuration not stated) the EC50 [3] was > 112 µM (not active) and the EC50 [4] was > 112 µM (not active).
For `CN(C)c1ccc(N=Nc2ccccc2C(=O)OCC(=O)NCC2CCCCC2)cc1`, the CC50 [10] was > 40 µM (active).
